Test results published in patent US8754071B2 (priority 2011, dated 2014).

target: T1, c-kit (Homo sapiens, UniProt P10721); assay: Mo7e cell proliferation assay (SCF dependent proliferation); format: cell-based; settings: Table 1; human Mo7e cells stimulated with SCF, 48 hours, CellTiter Glo; 1% FBS; read-out: c-kit (Mo7e)
T1 construct: human Mo7e cells which endogenously express c-kit; endogenous in cells; host or cells: human Mo7e cells (promegakaryocytic leukemia line), stimulated with human recombinant SCF
T1 sequence (P10721 26-976): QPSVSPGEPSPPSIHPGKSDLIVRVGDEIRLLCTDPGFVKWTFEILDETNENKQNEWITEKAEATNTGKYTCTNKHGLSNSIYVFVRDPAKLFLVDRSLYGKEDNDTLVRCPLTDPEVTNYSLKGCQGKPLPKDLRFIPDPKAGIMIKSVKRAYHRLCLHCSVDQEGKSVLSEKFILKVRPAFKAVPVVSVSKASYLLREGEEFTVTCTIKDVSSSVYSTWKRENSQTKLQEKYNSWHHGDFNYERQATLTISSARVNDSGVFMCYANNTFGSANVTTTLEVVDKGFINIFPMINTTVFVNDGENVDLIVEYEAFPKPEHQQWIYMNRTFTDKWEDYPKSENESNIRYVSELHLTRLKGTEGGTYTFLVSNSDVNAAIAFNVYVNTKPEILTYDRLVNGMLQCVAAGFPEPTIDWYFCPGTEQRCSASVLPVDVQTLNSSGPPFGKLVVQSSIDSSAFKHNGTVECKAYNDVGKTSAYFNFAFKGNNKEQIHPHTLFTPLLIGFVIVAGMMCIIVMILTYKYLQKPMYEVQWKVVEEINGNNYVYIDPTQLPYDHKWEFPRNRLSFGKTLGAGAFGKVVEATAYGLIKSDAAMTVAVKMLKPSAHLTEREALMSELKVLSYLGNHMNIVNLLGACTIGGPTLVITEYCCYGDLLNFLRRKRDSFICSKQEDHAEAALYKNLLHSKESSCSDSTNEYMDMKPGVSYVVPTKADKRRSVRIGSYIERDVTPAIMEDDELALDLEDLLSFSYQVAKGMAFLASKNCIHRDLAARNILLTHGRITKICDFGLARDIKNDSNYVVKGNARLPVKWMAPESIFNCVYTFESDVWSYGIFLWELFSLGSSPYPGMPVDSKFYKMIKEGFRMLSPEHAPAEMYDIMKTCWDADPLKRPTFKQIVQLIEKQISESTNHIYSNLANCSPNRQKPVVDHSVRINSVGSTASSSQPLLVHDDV
In short: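 Human Mo7e cells with endogenous c-kit, proliferation driven by SCF, 384-well format. After 48 h at 37 °C viability read by CellTiter-Glo luminescence. IC50 taken as concentration giving response halfway between baseline and maximum.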

Point of comparison: Cc1ccc(-c2noc([C@@H]3CCCN(S(C)(=O)=O)C3)n2)cc1NC(=O)c1cnc2ccccn12 [F39], IC50 0.049 µM. Against it:
- Cc1ccc(-c2noc([C@H](C)N3CCC(F)(F)C3)n2)cc1NC(=O)c1cnc2ccccn12 [F51] — within 1.5-fold, 0.043 µM
- CCCCS(=O)(=O)N1CC(c2nc(-c3ccc(C)c(NC(=O)c4cnc5ccccn45)c3)no2)C1 [F31] — within 1.5-fold, 0.054 µM
- Cc1ccc(-c2noc([C@@H]3CC(F)(F)CN3S(C)(=O)=O)n2)cc1NC(=O)c1cnc2ccccn12 [F32] — within 1.5-fold, 0.055 µM
- Cc1ccc(-c2noc(C3CN(S(C)(=O)=O)CCO3)n2)cc1NC(=O)c1cnc2ccccn12 (stereo not shown) [F35] — within 1.5-fold, 0.066 µM
- Cc1ccc(-c2nc(N3CCC3)no2)cc1NC(=O)c1cnc2ccccn12 [F1] — the same, 0.049 µM
- CC(C)(C)OC(=O)N1CC(c2nc(-c3ccc(F)c(NC(=O)c4cnc5ccccn45)c3)no2)C1 [F27, tert-butyl 3-(3-(4-fluoro-3-(imidazo[1,2-a]pyridine-3-carboxamido)phenyl)-1,2,4-oxadiazol-5-yl)azetidine-1-carboxylate] — 20-fold higher, 0.997 µM
- Cc1ccc(-c2noc(CCCN3CCOCC3)n2)cc1NC(=O)c1cnc2ccccn12 [F20] — 1.9-fold higher, 0.095 µM
- COC(=O)N1CC(c2nc(-c3ccc(C)c(NC(=O)c4cnc5ccc(C)cn45)c3)no2)C1 [F62, methyl 3-(3-(4-methyl-3-(6-methylimidazo[1,2-a]pyridine-3-carboxamido)phenyl)-1,2,4-oxadiazol-5-yl)azetidine-1-carboxylate] — within 1.5-fold, 0.036 µM
- COC(=O)N1CC(c2nc(-c3cc(NC(=O)c4cnc5ccccn45)c(C)cc3C)no2)C1 [F79, methyl 3-(3-(5-(imidazo[1,2-a]pyridine-3-carboxamido)-2,4-dimethylphenyl)-1,2,4-oxadiazol-5-yl)azetidine-1-carboxylate] — within 1.5-fold, 0.037 µM
- Cc1ccc(-c2noc(C[C@@H]3CCN(S(C)(=O)=O)C3)n2)cc1NC(=O)c1cnc2ccccn12 [F38] — 1.8-fold higher, 0.09 µM
- Cc1ccc(-c2noc(C3CN(S(=O)(=O)C(F)F)C3)n2)cc1NC(=O)c1cnc2ccccn12 [F43] — 2-fold lower, 0.024 µM
- Cc1ccc(-c2noc(NC3CCOCC3)n2)cc1NC(=O)c1cnc2cc(F)ccn12 [F81] — 1.7-fold higher, 0.084 µM
- Cc1ccc(-c2noc(N3CC(F)(F)C3)n2)cc1NC(=O)c1cnc2cc(F)ccn12 [F87] — 1.9-fold higher, 0.091 µM
- COC(=O)N1CC(c2nc(-c3ccc(C)c(NC(=O)c4cnc5ccc(F)cn45)c3)no2)C1 [F55] — within 1.5-fold, 0.054 µM
- Cc1ccn2c(C(=O)Nc3cc(-c4noc(N5CC(F)(F)C5)n4)ccc3C)cnc2c1 [F86] — 1.9-fold higher, 0.093 µM
- Cc1ccc(Nc2noc(C3CCCCO3)n2)cc1NC(=O)c1cnc2ccccn12 (stereo not shown) [F70] — 8.2-fold lower, 0.006 µM
- Cc1ccc(-c2noc(N3CC(F)(F)C3)n2)cc1NC(=O)c1cnc2ccccn12 [F78] — within 1.5-fold, 0.055 µM
- Cc1ccc2ncc(C(=O)Nc3cc(-c4noc(N5CC(O)(C(F)(F)F)C5)n4)ccc3C)n2c1 [F6] — 1.9-fold lower, 0.026 µM

same assay, conditions: Table 2; human Mo7e cells stimulated with SCF, 48 hours, CellTiter Glo; 1% FBS; read-out: c-kit (Mo7e)

Point of comparison: COC(=O)N1CC(F)(F)C[C@H]1c1nc(-c2ccc(C)c(NC(=O)c3cnc4ccccn34)c2)no1 [F172], IC50 0.122 µM. Against it:
- Cc1ccc(-c2noc(C3CN(c4cnccn4)C3)n2)cc1NC(=O)c1cnc2ccccn12 [F243] — 2.5-fold higher, 0.31 µM
- Cc1ccc(-c2noc(C3CNCCO3)n2)cc1NC(=O)c1cnc2ccccn12 (stereo not shown) [F188] — 3.3-fold higher, 0.399 µM
- Cc1ccc(-c2noc(C3CN(S(=O)(=O)c4ccn(C)n4)C3)n2)cc1NC(=O)c1cnc2ccccn12 [F158] — 4.3-fold higher, 0.527 µM
- COC(=O)N1CC(c2nc(-c3ccc(C)c(NC(=O)c4cnc5cc(C(F)(F)F)ccn45)c3)no2)C1 [F238] — within 1.5-fold, 0.13 µM
- Cc1ccc(-c2noc(CNC(=O)[C@H]3CCCO3)n2)cc1NC(=O)c1cnc2ccccn12 [F146] — 1.5-fold higher, 0.187 µM
- Cc1ccc2ncc(C(=O)Nc3cc(-c4noc(C5CCN5C(=O)OC(C)(C)C)n4)ccc3C)n2c1 (stereo not shown) [F261] — 2.4-fold higher, 0.291 µM
- Cc1ccc(-c2noc(C3CN(C(=O)OCCN4CCOCC4)C3)n2)cc1NC(=O)c1cnc2ccccn12 [F134] — 7.3-fold higher, 0.892 µM
- COC(=O)N1CC(c2nc(-c3ccc(C)c(NC(=O)c4cnc5ccc(CC(C)(C)O)cn45)c3)no2)C1 [F247] — 2.7-fold higher, 0.328 µM
- Cc1ccc(-c2noc(C[C@@H]3CCN(C(=O)OC(C)(C)C)C3)n2)cc1NC(=O)c1cnc2ccccn12 [F184] — 4.1-fold higher, 0.496 µM
- Cc1ccc(-c2noc(CC3CCN(S(C)(=O)=O)CC3)n2)cc1NC(=O)c1cnc2ccccn12 [F215] — within 1.5-fold, 0.175 µM
- Cc1ccc(-c2noc(CNC(=O)CN3CCOCC3)n2)cc1NC(=O)c1cnc2ccccn12 [F144] — 7.9-fold higher, 0.963 µM
- Cc1ccc(-c2noc(C3CN(C(=O)C(F)(F)F)C3)n2)cc1NC(=O)c1cnc2ccccn12 [F230] — 1.8-fold higher, 0.217 µM
- Cc1ccc(-c2noc([C@H]3CCCN3S(C)(=O)=O)n2)cc1NC(=O)c1cnc2ccccn12 [F213] — within 1.5-fold, 0.137 µM
- Cc1ccc(-c2noc([C@H]3CCCN(S(C)(=O)=O)C3)n2)cc1NC(=O)c1cnc2ccccn12 [F209] — within 1.5-fold, 0.148 µM
- CC(=O)N1CCO[C@@H](c2nc(-c3ccc(C)c(NC(=O)c4cnc5ccccn45)c3)no2)C1 [F199] — 4.2-fold higher, 0.509 µM
- Cc1ccc(-c2noc(CNC(=O)N3CCOCC3)n2)cc1NC(=O)c1cnc2ccccn12 [F292] — 16-fold higher, 1.93 µM
- CCS(=O)(=O)N1CC(c2nc(-c3ccc(F)c(NC(=O)c4cnc5ccccn45)c3)no2)C1 [F155] — within 1.5-fold, 0.12 µM
- CC(=O)N1CC(c2nc(-c3ccc(C)c(NC(=O)c4cnc5ccccn45)c3)no2)C1 [F115] — 3.8-fold higher, 0.464 µM
- Cc1ccc(-c2noc(C3CCCNC3)n2)cc1NC(=O)c1cnc2ccccn12 (stereo not shown) [F285] — 14-fold higher, 1.67 µM
- COC(=O)N1CCC[C@H](c2nc(-c3ccc(C)c(NC(=O)c4cnc5ccccn45)c3)no2)C1 [F208] — within 1.5-fold, 0.134 µM
- Cc1ccc2ncc(C(=O)Nc3cc(-c4noc(COC5COC5)n4)ccc3C)n2c1 [F260] — 1.7-fold higher, 0.205 µM
- O=C(Nc1cc(-c2noc(CN3CCOCC3)n2)ccc1F)c1cnc2ccccn12 [F229] — 2-fold higher, 0.245 µM
- Cc1ccc(-c2noc(C[C@H]3CCN(S(C)(=O)=O)C3)n2)cc1NC(=O)c1cnc2ccccn12 [F206] — within 1.5-fold, 0.169 µM
- Cc1ccc(-c2noc(C3CN(S(=O)(=O)C4CCOC4)C3)n2)cc1NC(=O)c1cnc2ccccn12 (stereo not shown) [F159] — within 1.5-fold, 0.157 µM
- CC(=O)N1CCC(c2nc(-c3ccc(C)c(NC(=O)c4cnc5ccccn45)c3)no2)CC1 [F193] — 2.9-fold higher, 0.354 µM
- Cc1ccc(-c2noc(C3CCCCN3)n2)cc1NC(=O)c1cnc2ccccn12 (stereo not shown) [F109] — 1.8-fold higher, 0.215 µM
- COC(=O)N1CCOC[C@@H]1c1nc(-c2ccc(C)c(NC(=O)c3cnc4ccccn34)c2)no1 [F166] — within 1.5-fold, 0.163 µM
- Cc1ccc(-c2noc(C3CCCNC3)n2)cc1NC(=O)c1cnc2ccccn12 (stereo not shown) [F274] — 9.8-fold higher, 1.2 µM
- Cc1ccc(-c2noc(CCC(=O)N3CCN(C)CC3)n2)cc1NC(=O)c1cnc2ccccn12 [F303] — 38-fold higher, 4.64 µM
- COCCCN1CC(c2nc(-c3ccc(C)c(NC(=O)c4cnc5ccccn45)c3)no2)C1 [F225] — 2-fold higher, 0.239 µM
- COC(=O)N1CC(c2nc(-c3ccc(C)c(NC(=O)c4cnc5ccc(C(C)(C)O)cn45)c3)no2)C1 [F246] — 2.6-fold higher, 0.317 µM
- CC(=O)N1CC(F)(F)C[C@H]1c1nc(-c2ccc(C)c(NC(=O)c3cnc4ccccn34)c2)no1 [F173] — 1.7-fold higher, 0.212 µM
- COC(=O)N1CC(c2nc(-c3ccc(C)c(NC(=O)c4cnc5ccc(C(C)=O)cn45)c3)no2)C1 [F245] — within 1.5-fold, 0.178 µM
- Cc1ccc(-c2noc(C3CN(S(=O)(=O)NC(=O)OC(C)(C)C)C3)n2)cc1NC(=O)c1cnc2ccccn12 [F133] — within 1.5-fold, 0.138 µM
- Cc1ccc(-c2noc(C3CCCCN3C)n2)cc1NC(=O)c1cnc2ccccn12 (stereo not shown) [F111] — 2-fold higher, 0.243 µM
- CC(=O)N1CCOC[C@@H]1c1nc(-c2ccc(C)c(NC(=O)c3cnc4ccccn34)c2)no1 [F168] — 2.9-fold higher, 0.358 µM
- COC(=O)N1CC(c2nc(-c3ccc(C)c(NC(=O)c4cnc5ccc(CCCc6nn[nH]n6)cn45)c3)no2)C1 [F310] — higher, > 10 µM
- COC(=O)N1CC(c2nc(-c3ccc(C)c(NC(=O)c4cnc5ccc(CCC(=O)OC(C)(C)C)cn45)c3)no2)C1 [F241] — within 1.5-fold, 0.115 µM
- O=C(Nc1cc(-c2noc(C3CN(S(=O)(=O)c4cccnc4)C3)n2)ccc1F)c1cnc2ccccn12 [F220] — 5.7-fold higher, 0.69 µM
- Cc1ccc2ncc(C(=O)Nc3cc(-c4noc(COC5CNC5)n4)ccc3C)n2c1 [F293] — 18-fold higher, 2.15 µM
- Cc1ccc(-c2noc(C3(C)CN(C(=O)OC(C)(C)C)C3)n2)cc1NC(=O)c1cnc2ccccn12 [F239] — 6.8-fold higher, 0.831 µM
- Cc1ccc(-c2nc(N3CC4(COC4)C3)no2)cc1NC(=O)c1cnc2ccccn12 [F294] — 18-fold higher, 2.2 µM
- Cc1ccc(-c2noc(CNC(=O)C3CCOCC3)n2)cc1NC(=O)c1cnc2ccccn12 [F149] — 5.6-fold higher, 0.684 µM
- COC(=O)N1CC(c2noc(-c3ccc(C)c(NC(=O)c4cnc5ccccn45)c3)n2)C1 [F101] — 2.7-fold higher, 0.332 µM
- Cc1ccc(-c2noc(C3C[C@@H](O)CN3S(C)(=O)=O)n2)cc1NC(=O)c1cnc2ccc(F)cn12 (stereo partly shown) [F272] — 9.3-fold higher, 1.14 µM
- COC(=O)N1CC(c2nc(-c3ccc(C)c(NC(=O)c4cnc5ccc(-n6ccnc6)cn45)c3)no2)C1 [F252] — 3.5-fold higher, 0.421 µM
- COC(=O)N1CCO[C@@H](c2nc(-c3ccc(C)c(NC(=O)c4cnc5ccccn45)c3)no2)C1 [F198] — within 1.5-fold, 0.142 µM
- Cc1cc(F)c(-c2noc(C3CN(S(C)(=O)=O)C3)n2)cc1NC(=O)c1cnc2ccccn12 [F232] — 4-fold higher, 0.489 µM
- COC(=O)N1CC(c2nc(-c3cc(NC(=O)c4cnc5ccccn45)c(C)cc3F)no2)C1 [F231] — 3.6-fold higher, 0.439 µM
- CC(=O)N1CC[C@H]1c1nc(-c2ccc(C)c(NC(=O)c3cnc4ccccn34)c2)no1 [F152] — 6-fold higher, 0.738 µM
- COC(=O)N1CCC[C@@H](c2nc(-c3ccc(C)c(NC(=O)c4cnc5ccccn45)c3)no2)C1 [F207] — within 1.5-fold, 0.141 µM

same assay, conditions: Table 2; values marked *: 20% FBS instead of 1% FBS; read-out: c-kit (Mo7e)

With Cc1ccc(-c2noc(C3CCCN(C(=O)OC(C)(C)C)C3)n2)cc1NC(=O)c1cnc2ccccn12 (stereo not shown) [F282] the IC50 was 1.6 µM.

same assay, conditions: c-kit (Mo7e) μM, Table 1; human Mo7e cells stimulated with SCF, 48 hours, CellTiter Glo; 1% FBS

Molecule Cc1ccc(-c2noc([C@@H]3CCC(F)(F)CO3)n2)cc1NC(=O)c1cnc2ccccn12 [F11] has an IC50 of 0.023 µM.
